{"source": "paper PMC9474773", "about": "“PARP targeted Auger emitter therapy with [^125I]PARPi-01 for triple-negative breast cancer” (EJNMMI Research, 2022)", "key": {"[1]": {"experiment": "Time activity analysis of organ activity (biodistribution, therapy study and SPECT/CT data pooled)", "format": "in vivo, NOD/SCID mice", "protocol": "For biodistribution, animals imaged at 4 h p.i. were killed 24 h p.i., while the ones scanned 24 h p.i. were killed 5 days p.i.. Subsequently, organs were excised, weighed, and assayed for radioactivity in a gamma counter. Mean tumour and organ uptake was determined from decay-corrected tissue radioactivity normalized to injected dose and tissue sample weight (%ID/g tissue wet weight).\nAll statistical analyses were performed using the Graph-Pad Prism software (Version 9.1.1). Biodistribution data is expressed as mean ± standard deviation. Kaplan–Meier Survival curve was analysed using survival analysis (Log rank Mantel-Cox test). The data points of the normalized tumour volume as a function of the time of the groups (Control, ^125I-PARPi, Control—excluded ulcers, ^125I-PARPi—excluded ulcers) were subjected to nonlinear regression analysis using the exponential growth formula Y = Y0*exp(k*x) (Malthusian). Accordingly, the doubling time is equal to ln(2)/k. […] During regression analysis, the best-fit value k was compared between two datasets each using the extra sum-of-squares F test, testing the null hypothesis that k is the same for both datasets. Time activity analysis was performed using nonlinear exponential decay curve fitting and area under the curve was computed using the Graph-Pad Prism software. The area under the curve is expressed as total peak area ± standard error. For statistical analysis of fluorescent signals, unpaired t-test was used.\nAuger emitter-based therapeutic effect was assessed upon application of [^125I]PARPi-01 in 4 doses (8.15 ± 2.96 MBq/dose) with 10 days between each dose in subcutaneous MDA-MB-231 models (Fig. 3A). The fractionated therapy was designed based on two recent publications. In the study by Riad et al., a good tumour response without severe toxicity in normal tissue after application of 30 MBq ^125I-labeled PARPi was shown. […] Furthermore we observed DNA damage upon low dose PARPi application in our in-vitro experiments in the MDA-MB-231 cell line. […] To avoid any handling bias in calliper measurements, only CT-image-based tumour growth was analysed. […] A significant delay in tumour growth was observed upon [^125I]PARPi-01 treatment showing doubling time of 14.2 d (95% CI: 12.6 d to 16.1 d) (Fig. 3B, Additional file 1: Fig. S3). Comparing the treatment group with the control (with and without exclusion of animals with ulcers) we could see a significant difference between the k values (P < 0.0001 and P = 0.0038, respectively) and thus also the doubling time. […] A significant portion of the mice in both the control group and the therapy group were sacrificed due to reaching humane endpoints not related to tumour size. 2 mice were sacrificed due to ascites and 10 mice were sacrificed due to ulcer formation on the tumour site. […] Considering only this selection of mice, median survival time was 35 and 38 for control and therapy mice, respectively. Since, as shown for ^177Lu labelled tracer, data (SUV, concentration) calculated based on SPECT images correlate with those obtained by gamma counting, liver, tumour, and muscle were excised for subsequent gamma counter measurements. To obtain the time activity curve and tracer retention time in each organ, the decay corrected activity (%ID/g) from the biodistribution study, therapy study and also organ activity calculated from SPECT/CT images at 4 h and 24 h p.i. were taken together and plotted over time for liver (Fig. 3D), tumour (Fig. 3E) and muscle (Fig. 3F). Tracer uptake in liver was at a peak of 3.84%ID/g at 4 h p.i. and dropped over time to 0.411%ID/g (8d p.i.). […] The peak uptake of muscle was only 0.186%ID/g at 4 h p.i. and decreased to 0.002%ID/g at 8 d p.i. The overall area under the curve (retention time) in tumour was 26.53 ± 2.35 h/g as opposed to a liver retention of 284 ± 45.02 h/g, whereas the retention time of muscle was only 5.918 ± 0.98 h/g."}, "MDA-MB-231 cells": {"tested_on": "MDA-MB-231 cells", "design": "method as in PMID 35008392", "settings": "cited from earlier work"}, "MDA-MB-468": {"tested_on": "MDA-MB-468", "experiment": "Nuclear uptake, subcellular fractionation with gamma counter", "format": "cell-based", "settings": "24 h, 1 MBq/10^6 cells", "protocol": "(§1) Breast cancer cells were seeded (0.5 × 10^6) in a 12-well plate and treated with [^125I]PARPi-01 (1 MBq/10^6 cells) for 24 h. Subcellular fractionation was performed using a Subcellular Fractionation kit (ThermoFischer inc., #78840. Protein concertation was assessed using BCA assay. SDS-PAGE was performed using the fractions (30 µg/lane) and Any KD Mini-Protean TGX gels (90 V for 1.5 h). The separated proteins were transferred to PVDF membranes using a wet blotting (60 V, 2 h) technique. The blots were then blocked with 1% Milk/TBST and incubated with a primary antibody (anti-PARP1 (1:1000); Abcam ab227244; anti-GAPDH (1:4000); cell signalling 14C10, or anti-Histon H3 1:1000) Abcam ab1791). For the phosphorimager analysis, after blotting, the blots were sandwiched with a Fujifilm Imaging plate for Bioanalyzer (BAS-MS 2040), and incubated overnight, and the protein bound activity was imaged using a phosphorimager (Typhoon FLA 7000 version 1.2). To assess the tracer uptake, both fractions were measured using a gamma counter (Wizard^2, Perkin Elmer, USA)."}, "MDA-MB-231": {"tested_on": "MDA-MB-231", "experiment": "Nuclear uptake, subcellular fractionation with gamma counter", "format": "cell-based", "settings": "24 h, 1 MBq/10^6 cells", "protocol": "as §1"}, "MCF-7": {"tested_on": "MCF-7", "experiment": "Nuclear uptake, subcellular fractionation with gamma counter", "format": "cell-based", "settings": "24 h, 1 MBq/10^6 cells", "protocol": "as §1"}, "[2]": {"settings": "total peak area ± standard error"}}, "data": [{"compound": "O=C(c1ccc([125I])cc1)N1CCN(C(=O)c2cc(Cc3n[nH]c(=O)c4ccccc34)ccc2F)CC1", "note": "[[^125I]PARPi-01]", "values": [{"measurement": "tracer accumulation in tumour", "setting": "[1]; 4 h p.i.", "result": 0.7219, "unit": "%ID/g"}, {"measurement": "tracer uptake in liver", "setting": "[1]; 4 h p.i. (peak)", "result": 3.84, "unit": "%ID/g"}, {"measurement": "uptake of muscle", "setting": "[1]; 4 h p.i. (peak)", "result": 0.186, "unit": "%ID/g"}, {"measurement": "tracer accumulation in tumour", "setting": "[1]; 24 h", "result": 0.2, "unit": "% ID/g"}, {"measurement": "tracer accumulation in tumour", "setting": "[1]; 8 days", "result": 0.02, "unit": "%"}, {"measurement": "tracer uptake in liver", "setting": "[1]; 8 d p.i.", "result": 0.411, "unit": "%ID/g"}, {"measurement": "uptake of muscle", "setting": "[1]; 8 d p.i.", "result": 0.002, "unit": "%ID/g"}, {"measurement": "area under the curve (retention time) in liver", "setting": "[1]; [2]", "result": "284 ± 45.02", "unit": "h/g"}, {"measurement": "area under the curve (retention time) in muscle", "setting": "[1]; [2]", "result": "5.918 ± 0.98", "unit": "h/g"}, {"measurement": "area under the curve (retention time) in tumour", "setting": "[1]; [2]", "result": "26.53 ± 2.35", "unit": "h/g"}, {"measurement": "colony formation after treatment", "setting": "MDA-MB-231 cells", "result": "significant reduction in colony formation"}, {"measurement": "nuclear tracer localization, of total tracer", "setting": "MDA-MB-468", "result": "> 75", "unit": "%"}, {"measurement": "nuclear tracer localization, of total tracer", "setting": "MDA-MB-231", "result": "> 75", "unit": "%"}, {"measurement": "nuclear tracer localization, of total tracer", "setting": "MCF-7", "result": "more than 40%"}]}]}
